Test results taken from ChEMBL document CHEMBL3400146, “Synthesis and structure-activity relationship studies of novel [6,6,5] tricyclic oxazolidinone derivatives as potential antibacterial agents” (Bioorg Med Chem Lett, 2015).
In brackets after ≈: the same amount, converted by molar mass.

How the values were obtained:
[1] = system: Staphylococcus epidermidis; assay: Antibacterial activity against methicillin-sensitive Staphylococcus epidermidis incubated for 16 hrs by agar dilution method; assay type: functional
Staphylococcus aureus [2] = assay: Antibacterial activity against methicillin-sensitive Staphylococcus aureus incubated for 16 hrs by agar dilution method; assay type: functional
Streptococcus pneumoniae = assay: Antibacterial activity against penicillin-resistant Streptococcus pneumoniae incubated for 16 hrs by agar dilution method; assay type: functional
Staphylococcus aureus [3] = assay: Antibacterial activity against Staphylococcus aureus […] incubated for 16 hrs by agar dilution method; assay type: functional
[4] = system: Staphylococcus epidermidis; assay: Antibacterial activity against methicillin-resistant Staphylococcus epidermidis incubated for 16 hrs by agar dilution method; assay type: functional
Staphylococcus aureus [5] = assay: Antibacterial activity against methicillin-resistant Staphylococcus aureus incubated for 16 hrs by agar dilution method; assay type: functional
Enterococcus faecalis = assay: Antibacterial activity against Enterococcus faecalis incubated for 16 hrs by agar dilution method; assay type: functional
[6] = Half life in human liver microsomes at 0.1 uM in presence of NADPH by LC/MS/MS method; assay type: ADME
[7] = Half life in Sprague-Dawley rat liver microsomes at 0.1 uM in presence of NADPH by LC/MS/MS method; assay type: ADME
Liver microsome [8] = assay: Intrinsic clearance in Sprague-Dawley rat liver microsomes assessed per mg protein at 0.1 uM incubated for 7 to 60 mins in presence of NADPH by LC/MS/MS method; assay type: ADME; design: unit not given here
Liver microsome [9] = assay: Intrinsic clearance in human liver microsomes assessed per mg protein at 0.1 uM incubated for 7 to 60 mins in presence of NADPH by LC/MS/MS method; assay type: ADME; design: unit not given here

SMILES | MIC [1] [µg/mL] | MIC (Staphylococcus aureus [2]) [µg/mL] | MIC (Streptococcus pneumoniae) [µg/mL] | MIC (Staphylococcus aureus [3]) [µg/mL] | MIC [4] [µg/mL] | MIC (Staphylococcus aureus [5]) [µg/mL] | MIC (Enterococcus faecalis) [µg/mL] | half-life at 0.1 µM [6] [h] | half-life at 0.1 µM [7] [h] | CLH (Liver microsome [8]) | CLH (Liver microsome [9])
CC(=O)NC[C@@H]1OC(=O)N2c3ccc(-c4ccc(F)nc4)cc3SC[C@@H]12 | 2 (≈ 5.36 µM) | 4 (≈ 10.7 µM) | 2 (≈ 5.36 µM) | 4 (≈ 10.7 µM) | 2 (≈ 5.36 µM) | 2 (≈ 5.36 µM) | 4 (≈ 10.7 µM) | – | – | – | –
CC(=O)NC[C@@H]1OC(=O)N2c3ccc(-c4ccc(N5CCOC5=O)nc4)cc3S(=O)(=O)C[C@@H]12 | > 16 | > 16 | > 16 | > 16 | – | – | > 16 | – | – | – | –
CC(=O)NCC1OC(=O)N2c3ccc(-c4ccc(N5CCOC5=O)nc4)cc3NCC12 (configuration not stated) | 16 (≈ 37.8 µM) | 16 (≈ 37.8 µM) | 4 (≈ 9.45 µM) | 16 (≈ 37.8 µM) | > 2 | > 4 | 16 (≈ 37.8 µM) | – | – | – | –
O=C1OCCN1c1ccc(-c2ccc3c(c2)SC[C@H]2[C@H](CO)OC(=O)N32)cn1 | > 16 | > 16 | > 16 | > 16 | – | – | > 16 | – | – | – | –
O=C1OCCN1c1ccc(-c2ccc3c(c2)OC[C@H]2[C@H](CO)SC(=O)N32)cn1 | > 16 | > 16 | > 16 | > 16 | – | – | > 16 | – | – | – | –
CC(C)(C)OC(=O)N1CC2C(CO)OC(=O)N2c2ccc(-c3ccc(C4(C#N)CC4)nc3)cc21 (configuration not stated) | > 16 | > 16 | > 16 | > 16 | – | – | > 16 | – | – | – | –
CC(=O)NC[C@@H]1OC(=O)N2c3ccc(-c4ccc(N5CCOC5=O)nc4)cc3[S+]([O-])C[C@@H]12 (some centres not stated) | > 16 | > 16 | > 16 | > 16 | – | – | > 16 | – | – | – | –
N#CC1(c2ccc(-c3ccc4c(c3)SC[C@H]3[C@H](CO)OC(=O)N43)cn2)CC1 | > 16 | > 16 | > 16 | > 16 | – | – | > 16 | – | – | – | –
CN1C[C@H](c2ccc(-c3ccc4c(c3)OC[C@H]3[C@H](CO)OC(=O)N43)cn2)OC1=O | 0.25 (≈ 0.629 µM) | 0.5 (≈ 1.26 µM) | 1 (≈ 2.52 µM) | 0.5 (≈ 1.26 µM) | 0.25 (≈ 0.629 µM) | 0.5 (≈ 1.26 µM) | 1 (≈ 2.52 µM) | 68.8 | 16.7 | – | –
N#CC1(c2ccc(-c3ccc4c(c3)NCC3C(CO)OC(=O)N43)cn2)CC1 (configuration not stated) | > 16 | > 16 | > 16 | > 16 | – | – | > 16 | – | – | – | –
COc1ccc(-c2ccc3c(c2)SC[C@H]2[C@H](CNC(C)=O)OC(=O)N32)cn1 | 4 (≈ 10.4 µM) | 8 (≈ 20.8 µM) | 4 (≈ 10.4 µM) | 8 (≈ 20.8 µM) | 4 (≈ 10.4 µM) | 4 (≈ 10.4 µM) | 8 (≈ 20.8 µM) | – | – | – | –
CC(=O)NCC1OC(=O)N2c3ccc(-c4ccc(N5CCOC5=O)nc4)cc3N(C(=O)OC(C)(C)C)CC12 (configuration not stated) | > 16 | > 16 | > 16 | > 16 | – | – | > 16 | – | – | – | –
CN1CC(c2ccc(-c3ccc4c(c3)OC[C@H]3[C@H](CO)SC(=O)N43)cn2)OC1=O (single isomer, unassigned) | > 16 | > 16 | > 16 | > 16 | – | – | > 16 | – | – | – | –
CC(=S)NC[C@@H]1OC(=O)N2c3ccc(-c4ccc(C#N)nc4)cc3SC[C@@H]12 | 4 (≈ 10.1 µM) | 8 (≈ 20.2 µM) | 4 (≈ 10.1 µM) | 8 (≈ 20.2 µM) | 4 (≈ 10.1 µM) | 4 (≈ 10.1 µM) | > 16 | – | – | – | –
COc1ccc(-c2ccc3c(c2)SC[C@H]2[C@H](CNC(C)=S)OC(=O)N32)cn1 | 4 (≈ 9.96 µM) | 4 (≈ 9.96 µM) | 2 (≈ 4.98 µM) | 4 (≈ 9.96 µM) | 4 (≈ 9.96 µM) | 4 (≈ 9.96 µM) | 8 (≈ 19.9 µM) | – | – | – | –
CC(=S)NC[C@@H]1OC(=O)N2c3ccc(-c4ccc(F)nc4)cc3SC[C@@H]12 | 2 (≈ 5.14 µM) | 8 (≈ 20.5 µM) | 1 (≈ 2.57 µM) | 8 (≈ 20.5 µM) | 1 (≈ 2.57 µM) | 2 (≈ 5.14 µM) | 2 (≈ 5.14 µM) | – | – | – | –
CC(=O)NC[C@@H]1OC(=O)N2c3ccc(-c4ccc(C5CN(C)C(=O)O5)nc4)cc3SC[C@@H]12 (single isomer, unassigned) | 2 (≈ 4.4 µM) | 4 (≈ 8.8 µM) | 2 (≈ 4.4 µM) | 4 (≈ 8.8 µM) | 2 (≈ 4.4 µM) | 2 (≈ 4.4 µM) | 4 (≈ 8.8 µM) | – | 3.85 | 9.08 | 0
CC(=S)NC[C@@H]1OC(=O)N2c3ccc(-c4ccc(N5CCOC5=O)nc4)cc3SC[C@@H]12 | 1 (≈ 2.19 µM) | 2 (≈ 4.38 µM) | 1 (≈ 2.19 µM) | 2 (≈ 4.38 µM) | 1 (≈ 2.19 µM) | 1 (≈ 2.19 µM) | 1 (≈ 2.19 µM) | 0.55 | 0.35 | 99.6 | 63.4
CC(=O)NC[C@@H]1OC(=O)N2c3ccc(-c4ccc(C5(C#N)CC5)nc4)cc3SC[C@@H]12 | 2 (≈ 4.76 µM) | 4 (≈ 9.51 µM) | 2 (≈ 4.76 µM) | 4 (≈ 9.51 µM) | 2 (≈ 4.76 µM) | 2 (≈ 4.76 µM) | 4 (≈ 9.51 µM) | – | – | – | –
CC(=O)NC[C@@H]1OC(=O)N2c3ccc(-c4ccc(C(C)=O)nc4)cc3SC[C@@H]12 | 2 (≈ 5.03 µM) | 2 (≈ 5.03 µM) | 2 (≈ 5.03 µM) | 8 (≈ 20.1 µM) | 2 (≈ 5.03 µM) | 2 (≈ 5.03 µM) | 4 (≈ 10.1 µM) | – | – | – | –
N#Cc1ccc(-c2ccc3c(c2)SC[C@H]2[C@H](CO)OC(=O)N32)cn1 | > 16 | > 16 | > 16 | > 16 | – | – | > 16 | – | – | – | –
CC(=O)NC[C@H]1CN(c2ccc(N3CCOCC3)c(F)c2)C(=O)O1 [LINEZOLID] | 2 (≈ 5.93 µM) | – | – | – | 2 (≈ 5.93 µM) | 1 (≈ 2.96 µM) | – | – | – | – | –
N#Cc1ccc(-c2ccc3c(c2)OC[C@H]2[C@H](CO)SC(=O)N32)cn1 | > 16 | > 16 | > 16 | > 16 | – | – | > 16 | – | – | – | –
CC(=O)NC[C@@H]1OC(=O)N2c3ccc(-c4ccc(C#N)nc4)cc3SC[C@@H]12 | 4 (≈ 10.5 µM) | 4 (≈ 10.5 µM) | 2 (≈ 5.26 µM) | 8 (≈ 21 µM) | 4 (≈ 10.5 µM) | 4 (≈ 10.5 µM) | 2 (≈ 5.26 µM) | – | – | – | –
CC(=O)NC[C@@H]1OC(=O)N2c3ccc(-c4ccc(N5CCOC5=O)nc4)cc3SC[C@@H]12 | 2 (≈ 4.54 µM) | 4 (≈ 9.08 µM) | 1 (≈ 2.27 µM) | 4 (≈ 9.08 µM) | 2 (≈ 4.54 µM) | 2 (≈ 4.54 µM) | 4 (≈ 9.08 µM) | 10.1 | 6.13 | 5.71 | 3.47
